This is an account of results in patent US5252322A, “Skin tanning compositions containing imidazoles” (The Gillette Company, priority 1992, dated 1993).

The structures appear in SMILES notation.

The test system of data set [1] is tyrosinase. Briefly: Tyrosinase activity screening in S91 melanoma cell line. It is filed as cell-based. Here is the method: (§1) A screening test is employed to select compounds in vitro before in vivo testing. The better compounds are found to stimulate higher levels of tyrosinase activity in cell cultures. Often the increase in tyrosinase activity is accompanied by a small decrease in cell number.
(§2) To obtain more rapid results, the tests can be run with a melanoma cell line such as Cloudman S91 melanoma cells. However, if desired, normal human melanocytes (NHM) can also be employed. The compounds to be tested are added as aqueous solutions to the cell culture medium. After four days, the cells are harvested and counted, and a tyrosinase activity assay and a total protein determination are run on cell pellets.

The test system of data set [2] is tyrosinase. Put plainly: Tyrosinase activity screening in normal human melanocytes (NHM). It is filed as cell-based. The following applies: NHM, 0.5, 10 and 50 mM. As to the method: as §1, §2
Data set [3] concerns tyrosinase. Briefly: Tyrosinase activity assay of cell cultures stimulated with imidazole (cell line not stated). It is filed as cell-based. The conditions noted are these: four days, control (0 mM) 111.9. As to the method: as §1, §2
Dose-response curves from tyrosinase assays of cells stimulated with imidazole have slopes of about 1.1.

The test system of data set [4] is pigmented guinea pig skin. Briefly: In vivo tanning test on pigmented guinea pig skin. Here is the method:
To confirm the results of in vitro testing, in vivo testing was conducted on pigmented guinea pig skin. Five animals were used in each of the treatment or control groups.
1. Animals were clipped in a suitably pigmented area over the back or flank and chemically depilated prior to the first treatments. The area was at least 4 cm^2. The treatment site was 3 cm^2 and was carefully marked. Photographs of areas to be treated were taken prior to initial treatments. Animals were clipped as needed throughout the study, depilation was only done prior to evaluations.
2. Concentrations of imidazole of 0.1, 0.5, 1.0 and 2.0M were applied as a liquid in 50% EtOH. 100 μL volumes were applied via pipette and glass rod with minimal rubbing of the skin.
3. Treatments were made daily, 5 days per week for 3 weeks. Visual observations and photographic records were made at the study midpoint and 24 hours after the last treatment. Animals were clipped and depilated prior to these evaluations.
4. The animals were monitored for two weeks following the last treatment. At the end of the fifth week, animals were photographed.

Regarding `O=Cc1ncc[nH]1` [2-imidazolecarboxaldehyde], the “tyrosinase activity versus control” value with tyrosinase [1] (at 0.5 mM (tested 0.1, 0.25, 0.5 mM)) was “elevated”; in the data set on tyrosinase [1] (at 0.1 and 0.25 mM), “decreased activity”.
Turning to `O=C1NCCN1` [2-imidazolidone], the “tyrosinase activity versus control” value in the data set with tyrosinase [1] (at 50 mM (tested 0.5, 10, 50 mM)) is reported as “slight increase”; in the data set with tyrosinase [2] it was “moderate inhibition”.
Consider `OCc1c[nH]cn1` [4-(hydroxymethyl)imidazole], for which the “tyrosinase activity versus control” value with tyrosinase [1] (at 0.25 and 0.5 mM (tested 0.1, 0.25, 0.5 mM)) is listed as “slightly increased”.
As for `O=C(O)Cc1c[nH]cn1` [4-imidazoleacetic acid], in the data set with tyrosinase [1] (0.5 and 10 mM, may be due to acidic pH of test solutions), the “tyrosinase activity versus control” value is given as “dose dependent decrease”.
Regarding `N[C@@H](Cc1c[nH]cn1)C(=O)O` [L-histidine monochloride monohydrate], the “tyrosinase activity versus control” value in the data set on tyrosinase [1] (at 0.5 mM (tested 0.5 and 10 mM)) is “increased tyrosinase activity”.
For `c1c[nH]cn1` [imidazole], the “tyrosinase activity, DPM/1000 cells” value in the data set on tyrosinase [3] (0.5 mM) is given as 210.7 DPM/1000 cells; with tyrosinase [3] (1.0 mM), 263.2 DPM/1000 cells; in the data set on tyrosinase [3] (5.0 mM) it was 329.2 DPM/1000 cells; in the data set with tyrosinase [3] (10.0 mM), 516.1 DPM/1000 cells. In addition, in data set [4] (0.1, 0.5, 1.0 and 2.0M in 50% EtOH, topical 100 μL daily, 5 days per week for 3 weeks), the “visual observation of treated sites (darkening)” value is reported as “darkening for all areas”. Also, the skin irritation entry in data set [4] (2.0M solution in 50% EtOH, topical) is “appeared to mildly irritate the skin of some of the animals”. Besides, the “visual observation of treated sites (degree of tanning)” value in data set [4] (at 0.5 to 1.0M in 50% EtOH, topical, 3 weeks) is “most tanning”. Moreover, the “course of darkening over time” value in data set [4] (daily topical treatments for 3 weeks) is on record as “continued to increase through the third week”. Also, the “number of treatments after which darkening was observed” value in data set [4] (daily topical treatments, 5 days per week) is on record as 5-10 treatments.
